Test results: patent US8497278B2, “Imidazo[1,2-a]pyridine compounds” (priority 2008, dated 2013)

test system: central benzodiazepine receptors; assay: Central benzodiazepine receptor binding (test of Speth et al.); settings: 1000 nM of the compound
Procedure, shortened: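 Values are percent inhibition of central benzodiazepine receptor binding at 1000 nM compound (initial single-point screen at 1.0E-09, 1.0E-07 and 1.0E-05 M). Speth et al. binding test; nonspecific binding defined with excess unlabelled ligand and subtracted from total.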

Q: For `Cl.Clc1ccc(-c2nc3ccc(Cl)cn3c2CNc2ncccn2)cc1` [Compound 156, N-((6-chloro-2-(4-chlorophenyl)H-imidazo[1,2-a]pyridin-3-yl)methyl)pyrimidin-2-amine hydrochloride], which “% Inhibition at 1000 nM for CBZD” value is on record?
A: ++ (percentage of inhibition of central BZD site binding is greater than 80% in the presence of 1000 nM of the compound)

Q: `Cc1cc(Cl)nc(NCc2c(-c3ccc(C#N)cc3)nc3ccc(Cl)cn23)n1` [Compound 161, 4-(6-chloro-3-((4-chloro-6-methylpyrimidin-2-ylamino)methyl)imidazo[1,2-a]pyridin-2-yl)benzonitrile] was tested. Which “% Inhibition at 1000 nM for CBZD” value did it give?
A: ++ (percentage of inhibition of central BZD site binding is greater than 80% in the presence of 1000 nM of the compound)

Q: For `Cc1ccc(-c2nc3ccc(C)cn3c2CSc2ccccc2)cc1` [Compound 163, 6-Methyl-3-phenylsulfanylmethyl-2-p-tolyl-imidazo[1,2-a]pyridine], which “% Inhibition at 1000 nM for CBZD” value is on record?
A: ++ (percentage of inhibition of central BZD site binding is greater than 80% in the presence of 1000 nM of the compound)

Q: With `Fc1cc(F)nc(NCc2c(-c3ccccc3)nc3ccccn23)n1` [Compound 164, 4,6-difluoro-N-((2-phenylimidazo[1,2-a]pyridin-3-yl)methyl)pyrimidin-2-amine] as the compound, how does the “% Inhibition at 1000 nM for CBZD” value read?
A: ++ (percentage of inhibition of central BZD site binding is greater than 80% in the presence of 1000 nM of the compound)

Q: How did the “% Inhibition at 1000 nM for CBZD” value turn out when `Cc1ccc2nc(-c3ccc(F)cc3)c(CNc3nc(F)cc(F)n3)n2c1` [Compound 166, 4,6-difluoro-N-((2-(4-fluorophenyl)-6-methylimidazo[1,2-a]pyridin-3-yl)methyl)pyrimidin-2-amine] was run?
A: ++ (percentage of inhibition of central BZD site binding is greater than 80% in the presence of 1000 nM of the compound)

Q: For `Fc1cc(F)nc(NCc2c(-c3ccc(Cl)cc3)nc3ccccn23)n1` [Compound 167, N-((2-(4-chlorophenyl)imidazo[1,2-a]pyridin-3-yl)methyl)-4,6-difluoropyrimidin-2-amine], which “% Inhibition at 1000 nM for CBZD” value is on record?
A: ++ (percentage of inhibition of central BZD site binding is greater than 80% in the presence of 1000 nM of the compound)

Q: With `Fc1cc(F)nc(NCc2c(-c3ccccc3)nc3ccc(Cl)cn23)n1` [Compound 168, N-((6-chloro-2-phenylimidazo[1,2-a]pyridin-3-yl)methyl)-4,6-difluoropyrimidin-2-amine] as the compound, how does the “% Inhibition at 1000 nM for CBZD” value read?
A: ++ (percentage of inhibition of central BZD site binding is greater than 80% in the presence of 1000 nM of the compound)

Q: `Fc1ccc(-c2nc3ccc(Cl)cn3c2CNc2nc(F)cc(F)n2)cc1` [Compound 169, N-((6-Chloro-2-(4-fluorophenyl)imidazo[1,2-a]pyridin-3-yl)methyl)-4,6-difluoropyrimidin-2-amine] was tested. Which “% Inhibition at 1000 nM for CBZD” value did it give?
A: ++ (percentage of inhibition of central BZD site binding is greater than 80% in the presence of 1000 nM of the compound)

Q: Which “% Inhibition at 1000 nM for CBZD” value does the source give for `Cc1ccc(-c2nc3c(Cl)cc(Cl)cn3c2CNc2ncc[nH]2)cc1` [Compound 171, (6,8-Dichloro-2-p-tolyl-imidazo[1,2-a]pyridin-3-ylmethyl)-(1H-imidazol-2-yl)-amine] here?
A: ++ (percentage of inhibition of central BZD site binding is greater than 80% in the presence of 1000 nM of the compound)

Q: Which “% Inhibition at 1000 nM for CBZD” value does the source give for `Cc1ccc(-c2nc3c(Cl)cc(Cl)cn3c2CNc2nc(C)cc(C)n2)cc1` [Compound 172, (6,8-Dichloro-2-p-tolyl-imidazo[1,2-a]pyridin-3-ylmethyl)-(4,6-dimethyl-pyrimidin-2-yl)-amine] here?
A: ++ (percentage of inhibition of central BZD site binding is greater than 80% in the presence of 1000 nM of the compound)

Q: `Cc1ccc(-c2nc3ccc(C)cn3c2CON2C(=O)c3ccccc3C2=O)cc1` [Compound 173, 2-((6-methyl-2-p-tolylH-imidazo[1,2-a]pyridin-3-yl)methoxy)isoindoline-1,3-dione] was tested. Which “% Inhibition at 1000 nM for CBZD” value did it give?
A: ++ (percentage of inhibition of central BZD site binding is greater than 80% in the presence of 1000 nM of the compound)

Q: `Cc1ccc(-c2nc3ccc(C)cn3c2COn2nnc3ccccc32)cc1` [Compound 174, 1-((6-methyl-2-p-tolylH-imidazo[1,2-a]pyridin-3-yl)methoxy)-1H-benzo[d][1,2,3]triazole] was tested. Which “% Inhibition at 1000 nM for CBZD” value did it give?
A: ++ (percentage of inhibition of central BZD site binding is greater than 80% in the presence of 1000 nM of the compound)

Q: For `Cc1ccc(-c2nc3ccc(C)cn3c2COc2cccnc2)cc1` [Compound 175, 6-Methyl-3-(pyridin-3-yloxymethyl)-2-p-tolyl-imidazo[1,2-a]pyridine], which “% Inhibition at 1000 nM for CBZD” value is on record?
A: ++ (percentage of inhibition of central BZD site binding is greater than 80% in the presence of 1000 nM of the compound)

Q: With `Cc1ccc(-c2nc3ccc(C)cn3c2CSc2nncn2C)cc1` [Compound 176, 3-((4-methyl-4H-1,2,4-triazol-3-ylthio)methyl)-6-methyl-2-p-tolylH-imidazo[1,2-a]pyridine] as the compound, how does the “% Inhibition at 1000 nM for CBZD” value read?
A: ++ (percentage of inhibition of central BZD site binding is greater than 80% in the presence of 1000 nM of the compound)

Q: For `Cc1ccc(-c2nc3ccc(C)cn3c2CSc2nc[nH]n2)cc1` [Compound 177, 6-Methyl-2-p-tolyl-3-(1H-[1,2,4]triazol-3-ylsulfanylmethyl)-imidazo[1,2-a]pyridine], which “% Inhibition at 1000 nM for CBZD” value is on record?
A: + (percentage of inhibition of central BZD site binding is greater than 50% but less than 80% in the presence of 1000 nM of the compound)

Q: For `Cc1ccc(-c2nc3ccc(C)cn3c2CSc2cccs2)cc1` [Compound 178, 6-Methyl-3-(thiophen-2-ylsulfanylmethyl)-2-p-tolyl-imidazo[1,2-a]pyridine], which “% Inhibition at 1000 nM for CBZD” value is on record?
A: + (percentage of inhibition of central BZD site binding is greater than 50% but less than 80% in the presence of 1000 nM of the compound)

Q: `Cc1ccc(-c2nc3ccc(C)cn3c2CSc2nncs2)cc1` [Compound 180, 6-Methyl-3-([1,3,4]thiadiazol-2-ylsulfanylmethyl)-2-p-tolyl-imidazo[1,2-a]pyridine] was tested. Which “% Inhibition at 1000 nM for CBZD” value did it give?
A: ++ (percentage of inhibition of central BZD site binding is greater than 80% in the presence of 1000 nM of the compound)

Q: Which “% Inhibition at 1000 nM for CBZD” value does the source give for `Cc1ccc(-c2nc3ccc(C)cn3c2CSc2nc(C)cc(C)n2)cc1` [Compound 181, 3-((4,6-dimethylpyrimidin-2-ylthio)methyl)-6-methyl-2-p-tolylH-imidazo[1,2-a]pyridine] here?
A: ++ (percentage of inhibition of central BZD site binding is greater than 80% in the presence of 1000 nM of the compound)

Q: For `CNCCOc1nccc(NCc2c(-c3ccc(Cl)cc3)nc3ccccn23)n1` [Compound 185, N-((2-(4-chlorophenyl)imidazo[1,2-a]pyridin-3-yl)methyl)-2-(2-(methylamino)ethoxy)pyrimidin-4-amine], which “% Inhibition at 1000 nM for CBZD” value is on record?
A: ++ (percentage of inhibition of central BZD site binding is greater than 80% in the presence of 1000 nM of the compound)

Q: Which “% Inhibition at 1000 nM for CBZD” value does the source give for `Clc1ccc(-c2nc3ccccn3c2Cc2cncc(OC3CCNC3)n2)cc1` (stereo not shown) [Compound 186, 2-(4-chlorophenyl)-3-((6-(pyrrolidin-3-yloxy)pyrazin-2-yl)methyl)imidazo[1,2-a]pyridine] here?
A: ++ (percentage of inhibition of central BZD site binding is greater than 80% in the presence of 1000 nM of the compound)

Q: How did the “% Inhibition at 1000 nM for CBZD” value turn out when `CN(C)CCNc1cncc(Cc2c(-c3ccc(Cl)cc3)nc3ccccn23)n1` [Compound 190, N1-(6-((2-(4-chlorophenyl)imidazo[1,2-a]pyridin-3-yl)methyl)pyrazin-2-yl)-N2,N2-dimethylethane-1,2-diamine] was run?
A: ++ (percentage of inhibition of central BZD site binding is greater than 80% in the presence of 1000 nM of the compound)

Q: With `CC(C)(C)OC(=O)N1CCCC1c1ccnc(NCc2c(-c3ccc(F)cc3)nc3ccc(Cl)cn23)n1` (stereo not shown) [Compound 194, Tert-butyl 2-(2-((6-chloro-2-(4-fluorophenyl)imidazo[1,2-a]pyridin-3-yl)methylamino)pyrimidin-4-yl)pyrrolidine-1-carboxylate] as the compound, how does the “% Inhibition at 1000 nM for CBZD” value read?
A: + (percentage of inhibition of central BZD site binding is greater than 50% but less than 80% in the presence of 1000 nM of the compound)

Q: For `Cn1ccnc1Cc1c(-c2ccc(F)cc2)nc2ccc(F)cn12` [Compound 199, 6-fluoro-2-(4-fluorophenyl)-3-((1-methyl-1H-imidazol-2-yl)methyl)imidazo[1,2-a]pyridine], which “% Inhibition at 1000 nM for CBZD” value is on record?
A: ++ (percentage of inhibition of central BZD site binding is greater than 80% in the presence of 1000 nM of the compound)

Q: For `Cc1nc(Cc2c(-c3ccc(F)cc3)nc3ccc(F)cn23)no1` [Compound 201, 3-((6-fluoro-2-(4-fluoropnyl)imidazo[1,2-a]pyridin-3-yl)methyl)-5-methyl-1,2,4-oxadiazole], which “% Inhibition at 1000 nM for CBZD” value is on record?
A: ++ (percentage of inhibition of central BZD site binding is greater than 80% in the presence of 1000 nM of the compound)

Q: With `Cc1nc(Cc2c(-c3ccc(Cl)cc3)nc3ccccn23)no1` [Compound 202, 3-((2-(4-chlorophenyl)imidazo[1,2-a]pyridin-3-yl)methyl)-5-methyl-1,2,4-oxadiazole] as the compound, how does the “% Inhibition at 1000 nM for CBZD” value read?
A: ++ (percentage of inhibition of central BZD site binding is greater than 80% in the presence of 1000 nM of the compound)

Q: `Cc1ccc2nc(-c3ccc(Cl)cc3)c(Cc3nnc(C)o3)n2c1` [Compound 203, 2-((2-(4-chlorophenyl)-6-methylimidazo[1,2-a]pyridin-3-yl)methyl)-5-methyl-1,3,4-oxadiazole] was tested. Which “% Inhibition at 1000 nM for CBZD” value did it give?
A: ++ (percentage of inhibition of central BZD site binding is greater than 80% in the presence of 1000 nM of the compound)

Q: With `Fc1ccc(-c2nc3ccc(F)cn3c2Cc2ncn[nH]2)cc1` [Compound 210, 3-((1H-1,2,4-triazol-5-yl)methyl)-6-fluoro-2-(4-fluorophenyl)imidazo[1,2-a]pyridine] as the compound, how does the “% Inhibition at 1000 nM for CBZD” value read?
A: ++ (percentage of inhibition of central BZD site binding is greater than 80% in the presence of 1000 nM of the compound)

Q: For `CC(C)c1nnc(Cc2c(-c3ccc(Cl)cc3)nc3ccccn23)[nH]1` [Compound 231, 2-(4-chlorophenyl)-3-((5-isopropyl-4H-1,2,4-triazol-3-yl)methyl)imidazo[1,2-a]pyridine], which “% Inhibition at 1000 nM for CBZD” value is on record?
A: ++ (percentage of inhibition of central BZD site binding is greater than 80% in the presence of 1000 nM of the compound)
